This is an account of results in ChEMBL document CHEMBL4613324, “Design, Synthesis, and Evaluation of a Series of Novel Super Long-Acting DPP-4 Inhibitors for the Treatment of Type 2 Diabetes” (J Med Chem, 2020).

Data set [1] is described as follows: AUC in male Sprague-Dawley rat during 3-month repeated dose toxicology study. To be noted: in vivo. The data set is classed as ADME.
The test system of another data set is Rhesus monkey. Put plainly: Ex-vivo inhibition of DPP4 in plasma isolated from rhesus monkey treated at 10 mg/kg, ig after 3 weeks by fluorescence based assay relative to control. In kind it is functional. Particulars: Macaca mulatta, po, 504 h.
Data set [2] is described as follows: Toxicity in ob/ob mouse assessed as induction of body weight gain at 1 to 10 mg/kg, po dosed once every three days for 31 days. The data set is classed as organism-based. Particulars: in vivo, 744 h.
Data set [3] is described as follows: AUC in female Sprague-Dawley rat during 3-month repeated dose toxicology study. In kind it is ADME. To be noted: in vivo.
A further data set deals with Cytochrome P450 3A5 (Homo sapiens, UniProt P20815). Put plainly: Inhibition of recombinant human CYP3A5 using testosterone as substrate. The data set is classed as ADME.
Cytochrome P450 3A5, sequence (P20815 whole entry): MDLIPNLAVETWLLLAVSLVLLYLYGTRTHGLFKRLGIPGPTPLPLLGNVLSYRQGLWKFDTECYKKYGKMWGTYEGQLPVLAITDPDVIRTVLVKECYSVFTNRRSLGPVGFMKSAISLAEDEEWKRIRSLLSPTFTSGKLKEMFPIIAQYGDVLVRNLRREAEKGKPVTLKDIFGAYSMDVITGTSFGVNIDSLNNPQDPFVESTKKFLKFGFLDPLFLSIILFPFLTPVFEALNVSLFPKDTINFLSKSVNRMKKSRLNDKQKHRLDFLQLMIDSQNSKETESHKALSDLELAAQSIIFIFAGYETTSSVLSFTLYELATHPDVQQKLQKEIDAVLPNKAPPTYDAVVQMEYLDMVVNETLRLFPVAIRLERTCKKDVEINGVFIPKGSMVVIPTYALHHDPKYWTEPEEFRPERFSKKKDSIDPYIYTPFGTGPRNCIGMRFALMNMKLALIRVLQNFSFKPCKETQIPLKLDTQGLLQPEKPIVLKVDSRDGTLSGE
The target of the next data set is T1, Cytochrome P450 2C8 (Homo sapiens, UniProt P10632).
T1 sequence (P10632 whole entry): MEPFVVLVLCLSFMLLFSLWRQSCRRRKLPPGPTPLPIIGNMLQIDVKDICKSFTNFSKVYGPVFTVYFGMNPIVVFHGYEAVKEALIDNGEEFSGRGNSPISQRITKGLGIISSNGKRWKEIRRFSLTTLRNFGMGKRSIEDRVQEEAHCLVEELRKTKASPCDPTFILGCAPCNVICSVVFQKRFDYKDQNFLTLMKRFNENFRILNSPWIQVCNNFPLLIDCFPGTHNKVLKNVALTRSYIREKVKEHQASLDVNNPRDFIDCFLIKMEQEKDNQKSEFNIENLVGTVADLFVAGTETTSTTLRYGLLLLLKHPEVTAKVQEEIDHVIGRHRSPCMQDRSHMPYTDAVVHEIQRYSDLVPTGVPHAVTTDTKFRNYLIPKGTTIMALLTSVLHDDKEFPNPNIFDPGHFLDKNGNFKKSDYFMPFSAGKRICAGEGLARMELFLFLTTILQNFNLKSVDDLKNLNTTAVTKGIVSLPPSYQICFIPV
Put plainly: Inhibition of recombinant human CYP2C8. In kind it is ADME.

Data set [4] addresses Dipeptidyl peptidase 4 (Mus musculus) (UniProt P28843). The experiment in a line: Ex-vivo inhibition of DPP4 in plasma isolated from ob/ob mouse assessed as time duration during which DPP4 inhibition rate stays above 80% treated at 30 mg/kg, po measured after 2 to 72 hrs by fluorescence based assay. The data set is classed as functional, organism-based.

SMILES strings stand for the structures.

Dipeptidyl peptidase 4 (Mus musculus), sequence (P28843 whole entry, looked up): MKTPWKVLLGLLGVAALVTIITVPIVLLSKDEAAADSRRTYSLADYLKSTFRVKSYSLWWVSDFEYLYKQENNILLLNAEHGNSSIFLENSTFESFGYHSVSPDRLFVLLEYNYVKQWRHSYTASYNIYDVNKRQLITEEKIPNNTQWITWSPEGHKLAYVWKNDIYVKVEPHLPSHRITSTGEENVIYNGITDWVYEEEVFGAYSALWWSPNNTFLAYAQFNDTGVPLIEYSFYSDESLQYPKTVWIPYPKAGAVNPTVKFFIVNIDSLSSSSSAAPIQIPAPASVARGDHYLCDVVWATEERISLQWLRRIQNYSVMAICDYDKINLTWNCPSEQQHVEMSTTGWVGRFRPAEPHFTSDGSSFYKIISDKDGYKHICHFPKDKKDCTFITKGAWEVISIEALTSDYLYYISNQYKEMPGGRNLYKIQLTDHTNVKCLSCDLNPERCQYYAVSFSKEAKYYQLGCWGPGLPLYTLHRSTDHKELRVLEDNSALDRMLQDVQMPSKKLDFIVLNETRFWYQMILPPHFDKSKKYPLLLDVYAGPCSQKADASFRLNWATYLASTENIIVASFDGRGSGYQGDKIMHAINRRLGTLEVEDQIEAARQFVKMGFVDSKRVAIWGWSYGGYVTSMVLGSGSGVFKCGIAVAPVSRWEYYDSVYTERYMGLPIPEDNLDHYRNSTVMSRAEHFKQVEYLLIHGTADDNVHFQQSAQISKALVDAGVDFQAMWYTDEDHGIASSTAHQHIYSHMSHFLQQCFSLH

Turning to `CS(=O)(=O)n1cc2c(n1)CN([C@@H]1C[C@H](N)[C@@H](c3cc(F)ccc3F)O[C@@H]1C(F)(F)F)C2` [COFROGLIPTIN], the AUC turned out to be 3600 µg·h/mL in data set [1] and 4240 µg·h/mL in data set [3]. The same compound came in with an inhibition in vivo at 10 mg/kg in the data set on Rhesus monkey of 43.4%. In data set [2], the Activity entry is “Toxic”. In addition, the IC50 on Cytochrome P450 3A5 and at Cytochrome P450 2C8 was > 100 µM in each case. The TIME in data set [4] was found to be 72 h.

What is called AUC is concentration integrated over time. As a reminder, the inhibition in vivo is the change of the read-out against control, counted positive when it falls. The IC50 is the concentration that gives 50% inhibition.
